{
  "source": "patent US9896659B2",
  "about": "“Methods, kits, and compositions for stem cell self-renewal” (STOWERS INSTITUTE FOR MEDICAL RESEARCH, priority 2011, dated 2018)",
  "key": {"LSK Flk2^− cells": {"test_system": "LSK Flk2^− cells", "assay": "Ex vivo culture of sorted LSK Flk2^− cells with GSK-3β and PTEN inhibitors, expansion by FACS", "format": "cell-based, mouse", "description": "LSK or LSK Flk2^− cells were sorted into 96-well U-bottom tissue culture plates at 100 cells/well with 200 μl media/well. Cells were incubated at 37° C., 5% O2, 5% CO2 (balance N2) for the indicated number of days. One-half total volume of media (see Table 1, below for the base media) was carefully pipetted from the top and replaced with fresh media every other day.\nOne hundred LSK Flk2^− cells were sorted from wild-type (C57Bl/6) mice and cultured in (1) media, (2) media+1 μM CHIR99021 (a GSK-3β inhibitor, a gift from Dr. Sheng Ding), (3) media+200 nM Dipotassium Bis-peroxo(picolinato)oxovanadate (BpV(pic), a PTEN inhibitor, available from Calbiochem, Cat. No. 203705), (4) media+1 μM CHIR99021+200 nM BpV(pic), (5) media+200 nM Shikonin (also a PTEN inhibitor, available from Calbiochem, Cat. No. 565850), and (6) media+200 nM Shikonin+1 μM CHIR99021. (FIGS. 3B-C). Cells were cultured as described above. Cells were examined at 17 days of culture (FIG. 3B, original magnification 100×) and 23 days (FIG. 3C, original magnification 40×).\nLSK Flk2^− cells at 28 days culture in the indicated media conditions were examined (FIG. 3D, original magnification 200×).\nFACS analysis of 28 day LSK Flk2^− cells cultured in media+BpV(pic)+CHIR99021 (FIG. 3E) was performed. Cells were pre-gated on live, lineage negative cells.\nFold expansion of LSK Flk2^− cells after 28 days culture in (1) media, (2) media+BpV(pic), (3) media+CHIR99021, and (4) media+CHIR99021+BpV(pic) were analyzed.\nCells cultured for 9 days in (1) media, (2) media+BpV(pic) (200 nM), (3) media+CHIR99021 (100 nM), and (4) media+CHIR99021 (100 nM)+BpV(pic) (200 nM) were re-sorted for LSK Flk2^− cells, and fold expansion of LSK Flk2^− cells after 9 days culture in the indicated conditions was determined (FIG. 3I).\nFACS analysis was performed on 9 day LSK Flk2^− cells cultured in media+BpV(pic) (200 nM)+CHIR99021 (100 nM) (FIG. 3J). Cells were pre-gated on live, lineage negative cells."}, "[1]": {"test_system": "lethally irradiated recipients", "assay": "Serial transplantation of cultured MNCs without rescue/competitor cells", "format": "in vivo, mouse", "description": "FIGS. 27A-C show ex vivo expansion of normal, long-term repopulating HSC. MNCs containing a known quantity of LSK Flk2^− cells were cultured for 14 days with and without CHIR99021. The cultured progeny of MNCs containing a pre-culture dosage of 0.1, 0.3 or 1.0 LSK Flk2^− cells were transplanted into lethally irradiated recipients along with 1×10^5 rescue/competitor cells (n=10 for each of 6 groups). Peripheral blood was analyzed at 16 weeks post-transplant and competitive repopulating unit (CRU) frequency was determined using L-Calc software (Stem Cell Technologies, Inc.) based on Poisson statistics (Zhang, C. C. & Lodish, H. F. Murine hematopoietic stem cells change their surface phenotype during ex vivo expansion. Blood, Vol. 105, pages 4314-4320 (2005); Miller, C. L. & Eaves, C. J. Expansion in vitro of adult murine hematopoietic stem cells with transplantable lympho-myeloid reconstituting ability. Proceedings of the National Academy of Sciences of the United States of America, Vol. 94, pages 13648-13653 (1997)). […] Fresh MNCs containing 5 or 500 LSK Flk2^− cells, or the progeny of MNCs containing 5 LSK Flk2^− cells cultured for 14 days with and without CHIR99021, were transplanted into lethally irradiated recipients without rescue/competitor cells. At 16-17 weeks post-transplant, bone marrow isolated from 1° recipients was transplanted into 2° recipients and, at 16-17 weeks post-secondary transplant, from 2° into 3° recipients at a dosage of 1×10^6 cells per mouse. Peripheral blood was analyzed for percent donor repopulation at 16 weeks post-1°, 2°, and 3° transplant (upper panels) and percent mature donor-derived B, T and myeloid cells (lower panels).\nFor competitive repopulation assays, 1×10^5 bone marrow cells congenic with the host (CD45.1^+) were included per mouse. 100 μl of cultured cells or cells freshly isolated and quantified in the same manner were transplanted into lethally irradiated (10 Grays, single dose) Protein tyrosine phosphatase, receptor type, C (Ptprc or CD45.1) recipient mice through the tail vein using an insulin syringe (29 gauge). Mice were placed on Batril® water (Bayer Healthcare, LLC, Shawnee Mission, Kans.) 3 days prior to irradiation which continued for 2 weeks post-irradiation. Repopulation was measured every 4 weeks post-transplant by collection of peripheral blood, red blood cell lysis and staining of CD45.1 (recipient) vs. CD45.2 (donor) engraftment. […] Multi-lineage reconstitution was determined by CD3, B220 (for T and B lymphoid, respectively) and Gr1, Mac-1 (for myeloid) gating on donor (CD45.2^+) cells. […] Bone marrow cells were counted and transplanted as above at a dosage of 1×10^6 per mouse. […]"}},
  "data": [
    {"smiles": "Cc1c[nH]c(-c2cnc(NCCNc3ccc(C#N)cn3)nc2-c2ccc(Cl)cc2Cl)n1", "note": "[CHIR99021]", "values": [
      {"measurement": "Expansion of LSK cells compared to control (photographs)", "setting": "LSK Flk2^− cells; 17 and 23 days culture, 1 μM CHIR99021, 200 nM BpV(pic)", "result": "greater expansion of LSK cells"},
      {"measurement": "Expansion of LSK Flk2^− cells compared to media without inhibitor", "setting": "LSK Flk2^− cells; 28 days culture", "result": "significant expansion"},
      {"measurement": "Dose of fresh, unexpanded cells giving equivalent long-term repopulation", "setting": "[1]; 16 weeks post-secondary transplantation, 5 versus 500 putative HSCs", "result": 100, "unit": "fold"},
      {"measurement": "Repopulation of tertiary recipients", "setting": "[1]; 16 weeks post-tertiary transplant, versus 100× uncultured cells", "result": "equivalent levels of repopulation with no statistical difference between the two groups"},
      {"measurement": "Survival of tertiary recipients", "setting": "[1]; Kaplan-Meier, FIG. 27C", "result": "survival rates similar to tertiary recipients of 100× uncultured cells"},
      {"measurement": "Donor reconstitution at 16 weeks post-secondary transplant", "setting": "[1]; secondary lethally-irradiated recipients, 1×10^6 bone marrow cells", "result": "90.6±4.8", "unit": "%"}
    ]}
  ]
}
